SMILES	melting point
O=C(/C=C/c1cc(Br)cc(Br)c1)NC(=S)NNC(=O)Cc1ccc(F)cc1 [LW-21, 3-(3,5-Dibromo-phenyl)-N-{N′-[2-(4-fluoro-phenyl)-acetyl]hydrazinocarbothioyl}-acrylamide]	195 to 196 °C
O=C(/C=C/c1cc(Br)cc(Br)c1)NC(=S)NNC(=O)c1ccccc1 [LW-23, N—(N′-Benzoyl-hydrazinocarbothioyl)-3-(3,5-dibromo-phenyl)-acrylamide]	224 to 225 °C
O=C(/C=C/c1c(Cl)cc(Cl)cc1Cl)NC(=S)NNC(=O)Cc1cccs1 [LW-2, N—[N′-(2-Thiophen-2-yl-acetyl)-hydrazinocarbothioyl]-3-(2,4,6-trichloro-phenyl)-acrylamide]	219 to 220 °C
O=C(COc1ccc(Br)cc1)NCC(=O)Nc1cccc(Cl)c1 [MM-32, 2-(4-Bromo-phenoxy)-N-[(3-chloro-phenylcarbamoyl)-methyl]-acetamide]	205 to 206 °C
O=C(/C=C/c1ccc(F)cc1)NC(=S)NNC(=O)Cc1ccccc1 [LW-12, 3-(4-Fluoro-phenyl)-N—(N′-phenylacetyl-hydrazinocarbothioyl)-acrylamide]	212 to 213 °C
COc1ccc(NC(=O)CNC(=O)COc2ccccc2)c(C)c1 [MM-1, N-[(4-methoxy-2-methylphenylcarbamoyl)methyl]-2-phenoxyacetamide]	165 to 166 °C
O=C(/C=C/c1c(F)cc(F)cc1F)NC(=S)NNC(=O)Cc1ccccc1 [LW-14, N—(N′-Phenylacetyl-hydrazinocarbothioyl)-3-(2,4,6-trifluoro-phenyl)-acrylamide]	210 to 211 °C
O=C(COc1ccc(Br)cc1)NCC(=O)Nc1cccc([N+](=O)[O-])c1 [MM-33, 2-(4-Bromo-phenoxy)-N-[(3-nitro-phenylcarbamoyl)-methyl]-acetamide]	197 to 198 °C
COc1cccc(OC)c1/C=C/C(=O)NC(=S)NNC(=O)c1cccs1 [LW-19, 3-(2,6-Dimethoxy-phenyl)-N—[N′-(thiophene-2-carbonyl)-hydrazinocarbothioyl]-acrylamide]	209 to 210 °C
O=C(Cc1ccc(F)cc1)NNC(=S)NC(=O)Cc1ccccc1 [LW-22, N-{N′-[2-(4-Fluoro-phenyl)-acetyl]-hydrazinocarbothioyl}-2-phenyl-acetamide]	182 to 183 °C
O=C(/C=C/c1c(F)cc(F)cc1F)NC(=S)NNC(=O)Cc1cccs1 [LW-11, N—[N′-(2-Thiophen-2-yl-acetyl)-hydrazinocarbothioyl]-3-(2,4,6-trifluoro-phenyl)-acrylamide]	207 to 208 °C
COc1ccc(NC(=O)CNS(=O)(=O)/C=C/c2ccc(C)cc2)cc1 [DR-32, N-(4-Methoxy-phenyl)-2-(2-p-tolyl-ethenesulfonylamino)-acetamide]	145 to 146 °C
O=C(COc1ccc(F)cc1)NCC(=O)Nc1ccc(Br)cc1 [MM-10, N-[(4-Bromo-phenylcarbamoyl)-methyl]-2-(4-fluoro-phenoxy)-acetamide]	192 to 193 °C
O=C(COc1ccc(Cl)cc1)NCC(=O)Nc1ccc(I)cc1 [MM-4, 2-(4-Chloro-phenoxy)-N-[(4-iodo-phenylcarbamoyl)-methyl]-acetamide]	205 to 206 °C
O=C(Cc1cc(F)cc(F)c1)NNC(=S)NC(=O)Cc1ccccc1 [LW-29, N-{N′-[2-(3,5-Difluoro-phenyl)-acetyl]-hydrazinocarbothioyl}-2-phenyl-acetamide]	178 to 179 °C
Cc1cccc(OCC(=O)NCC(=O)Nc2ccc(I)cc2)c1 [MM-36, N-[(4-Iodo-phenylcarbamoyl)-methyl]-2-m-tolyloxy-acetamide]	192 to 193 °C
O=C(Cc1ccc(F)cc1)NNC(=S)NC(=O)CC1CCCCC1 [LW-34, 2-Cyclohexyl-N-{N′-[2-(4-fluoro-phenyl)-acetyl]-hydrazinocarbothioyl}-acetamide]	132 to 133 °C
O=C(COc1ccc(Oc2ccccc2)cc1)NCC(=O)Nc1c(F)cccc1F [MM-21, N-[(2,6-Difluoro-phenylcarbamoyl)-methyl]-2-(4-phenoxy-phenoxy)-acetamide]	164 to 165 °C
Cc1ccc(S(=O)(=O)NCC(=O)Nc2c(F)cccc2F)cc1 [DR-2, N-(2,6-Difluoro-phenyl)-2-(toluene-4-sulfonylamino)-acetamide]	129 to 130 °C
Cc1ccc(/C=C/C(=O)NC(=S)NNC(=O)Cc2cccs2)cc1 [LW-4, N—[N′-(2-Thiophen-2-yl-acetyl)-hydrazinocarbothioyl]-3-p-tolyl-acrylamide]	212 to 213 °C
Cc1cccc(OCC(=O)NCC(=O)Nc2c(F)cccc2F)c1 [MM-22, N-[(2,6-Difluoro-phenylcarbamoyl)-methyl]-2-m-tolyloxy-acetamide]	161 to 162 °C
O=C(COc1ccc(F)cc1)NCC(=O)NC1CCCCC1 [MM-14, N-Cyclohexylcarbamoylmethyl-2-(4-fluoro-phenoxy)-acetamide]	184 to 185 °C
O=C(CCc1ccccc1)NNC(=S)NC(=O)Cc1ccccc1 [LW-30, 2-Phenyl-N—[N′-(3-phenyl-propionyl)-hydrazinocarbothioyl]-acetamide]	88 to 90 °C

SMILES	melting point
COc1ccc(OCC(=O)NCC(=O)Nc2cccc(Br)c2)cc1 [MM-31, N-[(3-Bromo-phenylcarbamoyl)-methyl]-2-(4-methoxy-phenoxy)-acetamide]	174 to 175 °C
O=C(Cc1ccc(F)cc1)NNC(=S)NC(=O)Cc1c(F)cccc1F [LW-33, 2-(2,6-Difluoro-phenyl)-N-{N′-[2-(4-fluoro-phenyl)-acetyl]-hydrazinocarbothioyl}-acetamide]	186 to 187 °C
O=C(CNC(=O)COc1ccc(Br)cc1)NCc1ccccc1 [MM-16, N-(Benzylcarbamoyl-methyl)-2-(4-bromo-phenoxy)-acetamide]	195 to 196 °C
O=C(COc1ccc(Br)cc1)NCC(=S)Nc1c(F)cccc1F [MM-25, 2-(4-Bromo-phenoxy)-N-[(2,6-difluoro-phenylthiocarbamoyl)-methyl]-acetamide]	174 to 175 °C
COc1cccc(OCC(=O)NCC(=O)Nc2ccc(OC)cc2C)c1 [MM-19, N-[(4-Methoxy-2-methyl-phenylcarbamoyl)-methyl]-2-(3-methoxy-phenoxy)-acetamide]	115 to 116 °C
O=C(Cc1c(F)cccc1F)NNC(=S)NC(=O)Cc1ccccc1 [LW-28, N-{N′-[2-(2,6-Difluoro-phenyl)-acetyl]-hydrazinocarbothioyl}-2-phenyl-acetamide]	174 to 175 °C
O=C(CNC(=O)COc1ccc(Br)cc1)NCc1ccc(Br)cc1F [MM-29, N-[(4-Bromo-2-fluoro-benzylcarbamoyl)-methyl]-2-(4-bromo-phenoxy)-acetamide]	179 to 180 °C
COc1ccc(NC(=O)CNC(=O)COc2ccc(F)cc2)cc1 [MM-12, 2-(4-Fluoro-phenoxy)-N-[(4-methoxy-phenylcarbamoyl)-methyl]-acetamide]	185 to 186 °C
O=C(Cc1ccc(F)cc1)NNC(=S)NC(=O)Cc1ccc(F)cc1 [LW-32, 2-(4-Fluoro-phenyl)-N-{N′-[2-(4-fluoro-phenyl)-acetyl]-hydrazinocarbothioyl}-acetamide]	178 to 179 °C
O=C(/C=C/c1cc(Br)cc(Br)c1)NC(=S)NNC(=O)CCc1ccccc1 [LW-31, 3-(3,5-Dibromo-phenyl)-N—[N′-(3-phenyl-propionyl)-hydrazinocarbothioyl]acrylamide]	213 to 214 °C
O=C(CNC(=O)COc1ccc(F)cc1)NCc1ccccc1 [MM-17, N-(Benzylcarbamoyl-methyl)-2-(4-fluoro-phenoxy)-acetamide]	165 to 166 °C
Cc1cccc(CC(=O)NNC(=S)NC(=O)/C=C/c2cc(Br)cc(Br)c2)c1 [LW-24, 3-(3,5-Dibromo-phenyl)-N—[N′-(2-m-tolyl-acetyl)-hydrazinocarbothioyl]-acrylamide]	203 to 204 °C
Cc1ccccc1CNC(=O)CNC(=O)COc1ccc(Br)cc1 [MM-27, 2-(4-Bromo-phenoxy)-N-[(2-methyl-benzylcarbamoyl)-methyl]-acetamide]	174 to 175 °C
O=C(/C=C/c1ccc(Cl)cc1)NC(=S)NNC(=O)Cc1cccs1 [LW-1, 3-(4-Chloro-phenyl)-N—[N′-(2-thiophen-2-yl-acetyl)-hydrazinocarbothioyl]-acrylamide]	232 to 233 °C
Cc1cccc(CC(=O)NNC(=S)NC(=O)Cc2ccccc2)c1 [LW-25, 2-Phenyl-N—[N′-(2-m-tolyl-acetyl)-hydrazinocarbothioyl]-acetamide]	149 to 150 °C
O=C(/C=C/c1ccc(-c2ccccc2)cc1)NC(=S)NNC(=O)Cc1cccs1 [LW-9, 3-Biphenyl-4-yl-N—[N′-(2-thiophen-2-yl-acetyl)-hydrazinocarbothioyl]-acrylamide]	231 to 232 °C
CC(NC(=O)CNS(=O)(=O)Cc1ccccc1)c1ccccc1 (stereo not shown) [DR-3, N-(1-Phenyl-ethyl)-2-phenylmethanesulfonylamino-acetamide]	147 to 148 °C
O=C(COc1ccc(F)cc1)NCC(=O)Nc1c(F)cccc1F [MM-24, N-[(2,6-Difluoro-phenylcarbamoyl)-methyl]-2-(4-fluoro-phenoxy)-acetamide]	194 to 195 °C
COc1ccc(OCC(=O)NCC(=O)Nc2c(F)cccc2F)cc1 [MM-23, N-[(2,6-Difluoro-phenylcarbamoyl)-methyl]-2-(4-methoxy-phenoxy)-acetamide]	164 to 165 °C
Cc1ccc(S(=O)(=O)NCC(=O)NCc2ccc(Br)cc2)cc1 [DR-10, N-(4-Bromo-benzyl)-2-(toluene-4-sulfonylamino)-acetamide]	207 to 208 °C
COc1ccc(NC(=O)CNC(=O)COc2ccc(Br)cc2)cc1 [MM-11, 2-(4-Bromo-phenoxy)-N-[(4-methoxy-phenylcarbamoyl)-methyl]acetamide]	190 to 191 °C
COc1ccc(NC(=O)CNC(=O)COc2ccc(F)cc2)c(C)c1 [MM-6, 2-(4-Fluoro-phenoxy)-N-[(4-methoxy-2-methyl-phenylcarbamoyl)-methyl]-acetamide]	169 to 170 °C
COc1ccc(OCC(=O)NCC(=S)Nc2c(F)cccc2F)cc1 [MM-26, N-[(2,6-Difluoro-phenylthiocarbamoyl)-methyl]-2-(4-methoxy-phenoxy)-acetamide]	160 to 161 °C
